Experimental data taken from ChEMBL document CHEMBL3046319, “PCR-RFLP detection of the E198A mutation conferring resistance to benzimidazoles in field isolates of Monilinia laxa from Greece” (Crop Prot, 2012).
Values after ≈ are worked out from the molar mass of the structure shown. Active and inactive are the calls of the source. The rule behind the calls is not given here.

Legend:
Monilinia laxa [1] = assay: Fungicidal activity against Monilinia laxa isolate MLBO2 assessed as reduction in mycelial growth rate at 25 degC after 4 days; type: functional, organism-based; settings: isolate MLBO2, 96 h
Monilinia laxa [2] = assay: Fungicidal activity against Monilinia laxa isolate MLAl8 assessed as reduction in mycelial growth rate at 25 degC after 4 days; type: functional, organism-based; settings: isolate MLAl8, 96 h
Monilinia laxa [3] = assay: Fungicidal activity against Monilinia laxa isolate MLK10 assessed as reduction in mycelial growth rate at 1 to 10 ug/ml at 31 degC after 5 days; type: functional, organism-based
Monilinia laxa [4] = assay: Fungicidal activity against Monilinia laxa isolate MLK5 assessed as reduction in mycelial growth rate at 1 to 10 ug/ml at 31 degC after 5 days; type: functional, organism-based
Monilinia laxa [5] = assay: Fungicidal activity against Monilinia laxa isolate MLK2 assessed as reduction in mycelial growth rate at 1 to 10 ug/ml at 31 degC after 5 days; type: functional, organism-based
Monilinia laxa [6] = assay: Fungicidal activity against Monilinia laxa isolate MLKS2 assessed as reduction in mycelial growth rate at 1 to 10 ug/ml at 31 degC after 5 days; type: functional, organism-based
Monilinia laxa [7] = assay: Fungicidal activity against Monilinia laxa isolate MLG5 assessed as reduction in mycelial growth rate at 1 to 10 ug/ml at 31 degC after 5 days; type: functional, organism-based
Monilinia laxa [8] = assay: Fungicidal activity against Monilinia laxa isolate MLC1 assessed as reduction in mycelial growth rate at 1 to 10 ug/ml at 31 degC after 5 days; type: functional, organism-based
Monilinia laxa [9] = assay: Fungicidal activity against Monilinia laxa isolate MLBO7 assessed as reduction in mycelial growth rate at 1 to 10 ug/ml at 31 degC after 5 days; type: functional, organism-based
Monilinia laxa [10] = assay: Fungicidal activity against Monilinia laxa isolate MLP4 assessed as mean number of conidia produced in the colony at 25 degC after 12 days by haemocytometer; type: functional
Monilinia laxa [11] = assay: Fungicidal activity against Monilinia laxa isolate MLC2 assessed as mean number of conidia produced in the colony at 25 degC after 12 days by haemocytometer; type: functional
Monilinia laxa [12] = assay: Fungicidal activity against Monilinia laxa isolate MLP2 assessed as mean mycelial colony diameter at 25 degC after 4 days; type: functional
Monilinia laxa [13] = assay: Fungicidal activity against Monilinia laxa isolate MLK12 assessed as mycelial growth at 1 ug/ml at 25 degC after 4 days; type: functional
Monilinia laxa [14] = assay: Fungicidal activity against Monilinia laxa isolate KX4 assessed as reduction in mycelial growth rate at 1 to 10 ug/ml at 28 degC after 8 days; type: functional, organism-based
Monilinia laxa [15] = assay: Fungicidal activity against Monilinia laxa isolate MLNS2 assessed as reduction in mycelial growth rate at 1 to 10 ug/ml at 28 degC after 8 days; type: functional, organism-based
Monilinia laxa [16] = assay: Fungicidal activity against Monilinia laxa isolate MLK4 assessed as reduction in mycelial growth rate at 1 to 10 ug/ml at 28 degC after 8 days; type: functional, organism-based
Monilinia laxa [17] = assay: Fungicidal activity against Monilinia laxa isolate MLG6 assessed as reduction in mycelial growth rate at 25 degC after 4 days; type: functional, organism-based; settings: isolate MLG6, 96 h
Monilinia laxa [18] = assay: Fungicidal activity against Monilinia laxa isolate MLG5 assessed as reduction in mycelial growth rate at 25 degC after 4 days; type: functional, organism-based; settings: isolate MLG5, 96 h
Monilinia laxa [19] = assay: Fungicidal activity against Monilinia laxa isolate MLG4 assessed as reduction in mycelial growth rate at 25 degC after 4 days; type: functional, organism-based; settings: isolate MLG4, 96 h
Monilinia laxa [20] = assay: Fungicidal activity against Monilinia laxa isolate MLG2 assessed as reduction in mycelial growth rate at 25 degC after 4 days; type: functional, organism-based; settings: isolate MLG2, 96 h
Monilinia laxa [21] = assay: Fungicidal activity against Monilinia laxa isolate MLG1 assessed as reduction in mycelial growth rate at 25 degC after 4 days; type: functional, organism-based; settings: isolate MLG1, 96 h
Monilinia laxa [22] = assay: Fungicidal activity against Monilinia laxa isolate KX5 assessed as reduction in mycelial growth rate at 1 to 10 ug/ml at 31 degC after 5 days; type: functional, organism-based
Monilinia laxa [23] = assay: Fungicidal activity against Monilinia laxa isolate MLC4 assessed as reduction in mycelial growth rate at 25 degC after 4 days; type: functional, organism-based; settings: isolate MLC4, 96 h
Monilinia laxa [24] = assay: Fungicidal activity against Monilinia laxa isolate MLC3 assessed as reduction in mycelial growth rate at 25 degC after 4 days; type: functional, organism-based; settings: isolate MLC3, 96 h
Monilinia laxa [25] = assay: Fungicidal activity against Monilinia laxa isolate MLC2 assessed as reduction in mycelial growth rate at 25 degC after 4 days; type: functional, organism-based; settings: isolate MLC2, 96 h
Monilinia laxa [26] = assay: Fungicidal activity against Monilinia laxa isolate MLK12 assessed as reduction in mycelial growth rate at 1 to 10 ug/ml at 25 to 28 degC; type: functional, organism-based
Monilinia laxa [27] = assay: Fungicidal activity against Monilinia laxa isolate MLK5 assessed as reduction in mycelial growth rate at 1 to 10 ug/ml at 25 to 28 degC; type: functional, organism-based
Monilinia laxa [28] = assay: Fungicidal activity against Monilinia laxa isolate MLK2 assessed as reduction in mycelial growth rate at 1 to 10 ug/ml at 25 to 28 degC; type: functional, organism-based
Monilinia laxa [29] = assay: Fungicidal activity against Monilinia laxa isolate MLC2 assessed as reduction in mycelial growth rate at 1 to 10 ug/ml at 25 to 28 degC; type: functional, organism-based
Monilinia laxa [30] = assay: Fungicidal activity against Monilinia laxa isolate MLAl8 assessed as reduction in mycelial growth rate at 1 to 10 ug/ml at 25 to 28 degC; type: functional, organism-based
Monilinia laxa [31] = assay: Fungicidal activity against Monilinia laxa isolate MLA1 assessed as mycelial growth at 1 ug/ml at 25 degC after 4 days; type: functional
Monilinia laxa [32] = assay: Fungicidal activity against Monilinia laxa isolate MLBO6 assessed as reduction in mycelial growth rate at 1 to 10 ug/ml at 31 degC after 5 days; type: functional, organism-based
Monilinia laxa [33] = assay: Fungicidal activity against Monilinia laxa isolate MLBO5 assessed as reduction in mycelial growth rate at 1 to 10 ug/ml at 31 degC after 5 days; type: functional, organism-based
Monilinia laxa [34] = assay: Fungicidal activity against Monilinia laxa isolate MLBO5 assessed as mycelial growth at 1 ug/ml at 25 degC after 4 days; type: functional
Monilinia laxa [35] = assay: Fungicidal activity against Monilinia laxa isolate KX4 assessed as reduction in mycelial growth rate at 25 degC after 4 days; type: functional, organism-based; settings: isolate KX4, 96 h
Monilinia laxa [36] = assay: Fungicidal activity against Monilinia laxa isolate MLBO2 assessed as reduction in mycelial growth rate at 1 to 10 ug/ml at 31 degC after 5 days; type: functional, organism-based
Monilinia laxa [37] = assay: Fungicidal activity against Monilinia laxa isolate MLBO3 assessed as reduction in mycelial growth rate at 1 to 10 ug/ml at 31 degC after 5 days; type: functional, organism-based
Monilinia laxa [38] = assay: Fungicidal activity against Monilinia laxa isolate KX3 assessed as reduction in mycelial growth rate at 25 degC after 4 days; type: functional, organism-based; settings: isolate KX3, 96 h
Monilinia laxa [39] = assay: Fungicidal activity against Monilinia laxa isolate MLP7 assessed as reduction in mycelial growth rate at 25 degC after 4 days; type: functional, organism-based; settings: isolate MLP7, 96 h
Monilinia laxa [40] = assay: Fungicidal activity against Monilinia laxa isolate MLK7 assessed as reduction in mycelial growth rate at 25 degC after 4 days; type: functional, organism-based; settings: isolate MLK7, 96 h
Monilinia laxa [41] = assay: Fungicidal activity against Monilinia laxa isolate MLK6 assessed as reduction in mycelial growth rate at 25 degC after 4 days; type: functional, organism-based; settings: isolate MLK6, 96 h
Monilinia laxa [42] = assay: Fungicidal activity against Monilinia laxa isolate MLK1 assessed as reduction in mycelial growth rate at 25 degC after 4 days; type: functional, organism-based; settings: isolate MLK1, 96 h

Question: How did the EC50 (Monilinia laxa [1]) turn out when `COC(=O)Nc1nc2ccccc2[nH]1` [CARBENDAZIM] was run?
Answer: The EC50 was 0.18 µg/mL (≈ 0.941 µM).

Question: And the EC50 (Monilinia laxa [2])?
Answer: The EC50 was over 50 µg/mL.

Question: What about the inhibition (Monilinia laxa [3]) of the same molecule?
Answer: Its inhibition is “Active”.

Question: And the inhibition (Monilinia laxa [4])?
Answer: Its inhibition is “Active”.

Question: What about the inhibition (Monilinia laxa [5]) of the same molecule?
Answer: The inhibition was “Active”.

Question: And the inhibition (Monilinia laxa [6])?
Answer: The inhibition was “Active”.

Question: And the inhibition (Monilinia laxa [7])?
Answer: The inhibition was “Active”.

Question: What about the inhibition (Monilinia laxa [8]) of the same molecule?
Answer: Its inhibition is “Active”.

Question: And the inhibition (Monilinia laxa [9])?
Answer: The inhibition was “Active”.

Question: And the Activity (Monilinia laxa [10])?
Answer: Its Activity is 3.98 /cm2.

Question: What about the Activity (Monilinia laxa [11]) of the same molecule?
Answer: Its Activity is 5 /cm2.

Question: And the Activity (Monilinia laxa [12])?
Answer: The Activity was 25.5 mm.

Question: And the Activity (Monilinia laxa [13])?
Answer: The Activity was 95.82%.

Question: What about the inhibition (Monilinia laxa [14]) of the same molecule?
Answer: The inhibition was “inactive”.

Question: And the inhibition (Monilinia laxa [15])?
Answer: Its inhibition is “inactive”.

Question: And the inhibition (Monilinia laxa [16])?
Answer: Its inhibition is “inactive”.

Question: What about the EC50 (Monilinia laxa [17]) of the same molecule?
Answer: Its EC50 is 0.12 µg/mL (≈ 0.628 µM).

Question: And the EC50 (Monilinia laxa [18])?
Answer: The EC50 was 0.09 µg/mL (≈ 0.471 µM).

Question: And the EC50 (Monilinia laxa [19])?
Answer: Its EC50 is 0.11 µg/mL (≈ 0.575 µM).

Question: And the EC50 (Monilinia laxa [20])?
Answer: The EC50 was 0.08 µg/mL (≈ 0.418 µM).

Question: And the EC50 (Monilinia laxa [21])?
Answer: Its EC50 is 0.1 µg/mL (≈ 0.523 µM).

Question: And the inhibition (Monilinia laxa [22])?
Answer: The inhibition was “Active”.

Question: What about the EC50 (Monilinia laxa [23]) of the same molecule?
Answer: Its EC50 is 0.09 µg/mL (≈ 0.471 µM).

Question: And the EC50 (Monilinia laxa [24])?
Answer: The EC50 was over 50 µg/mL.

Question: What about the EC50 (Monilinia laxa [25]) of the same molecule?
Answer: Its EC50 is over 50 µg/mL.

Question: What about the inhibition (Monilinia laxa [26]) of the same molecule?
Answer: The inhibition was “inactive”.

Question: What about the inhibition (Monilinia laxa [27]) of the same molecule?
Answer: The inhibition was “inactive”.

Question: What about the inhibition (Monilinia laxa [28]) of the same molecule?
Answer: The inhibition was “inactive”.

Question: And the inhibition (Monilinia laxa [29])?
Answer: The inhibition was “inactive”.

Question: What about the inhibition (Monilinia laxa [30]) of the same molecule?
Answer: The inhibition was “inactive”.

Question: What about the Activity (Monilinia laxa [31]) of the same molecule?
Answer: The Activity was 0%.

Question: And the inhibition (Monilinia laxa [32])?
Answer: The inhibition was “Active”.

Question: And the inhibition (Monilinia laxa [33])?
Answer: Its inhibition is “Active”.

Question: What about the Activity (Monilinia laxa [34]) of the same molecule?
Answer: The Activity was 0%.

Question: And the EC50 (Monilinia laxa [35])?
Answer: Its EC50 is over 50 µg/mL.

Question: And the inhibition (Monilinia laxa [36])?
Answer: The inhibition was “Active”.

Question: And the inhibition (Monilinia laxa [37])?
Answer: The inhibition was “Active”.

Question: And the EC50 (Monilinia laxa [38])?
Answer: The EC50 was 0.09 µg/mL (≈ 0.471 µM).

Question: What about the EC50 (Monilinia laxa [39]) of the same molecule?
Answer: The EC50 was over 50 µg/mL.

Question: And the EC50 (Monilinia laxa [40])?
Answer: Its EC50 is 0.08 µg/mL (≈ 0.418 µM).

Question: What about the EC50 (Monilinia laxa [41]) of the same molecule?
Answer: The EC50 was over 50 µg/mL.

Question: And the EC50 (Monilinia laxa [42])?
Answer: The EC50 was over 50 µg/mL.
